{"source": "patent US20250162973A1", "about": "“METHODS OF SYNTHESIS AND USES OF AGRIMOL COMPOUNDS” (Versitech Limited, priority 2022, published 2025)", "key": {"[1]": {"experiment": "Safety in xenograft mice (body weight, H&E staining)", "type": "in vivo", "procedure": "In vivo anticancer efficacy of AGB was evaluated using the human tumor xenograft model, in which human cancer cells were inoculated into immune-deficiency mice. Briefly, twelve six-week-old (16-18 g) BALB/c nude mice were randomly divided into two groups and both received subcutaneous injection of NCI-H460 cells (2 million cells in 0.1 mL PBS) at its right flank of mice and tumor became palpable after three days of injection. Mice were received intravenous (i.v.) injections of AGB or vehicle control (10% DMSO and 0.05% Tween 80 in normal saline) every two days in two weeks. The length and width of tumor were measured by Vernier caliper and the body weight was monitored every two or three days. At the end of experiment, mice were sacrificed and decapitated. The liver, kidney, and tumor were collected and fixed in 4% formaldehyde for further haematoxylin and eosin (H&E) staining. All animal experiments in this project received human care and study protocols complied with the guidelines of the Laboratory Animal Services Centre of the University of Hong Kong. Tumor sizes and body weight were recorded before the drug injection every time and tumor volume (V) was calculated by the formula V=LW^2/2, where L is tumor length and W is tumor width. The relative tumor volume that normalized to day 0 was used to monitor the tumor growth. Data in each group was shown as mean±standard deviation.\nThe in vivo antitumor potential of AGB using the xenograft mouse model was assessed. Two different cancer cells (NCI-H460 and A549) were inoculated subcutaneously into the nude mice. Non-obese diabetic severe combined immunodeficient (NOD/SCID) mice were used for stem-like NCI-H460 cells. The mice were then treated by tail intravenous injection with vehicle or AGB (3 mg/kg). […] To further evaluate the safety of AGB, hematoxylin-eosin (H&E) staining of the kidney, liver, and tumor samples were performed (FIG. 1K). The necrotic area (circled by dashed line) in the tumor tissue from mice treated with AGB was much larger than that in vehicle group."}, "MDA-MB-231 cell line": {"tested_on": "MDA-MB-231 cell line", "experiment": "MTT cell viability assay", "type": "cell-based, human", "settings": "Homo sapiens, MDA-MB-231; MTT method, 48 h", "procedure": "(§1) SUNE1 (nasopharyngeal carcinoma), AGS (gastric adenocarcinoma), HeLa (cervix adenocarcinoma), HepG2 (hepatocellular carcinoma), U-87 MG (human glioblastoma cell), U2OS (osteosarcoma), MCF-7 (breast adenocarcinoma), MDA-MB-231 (breast adenocarcinoma), HCT116 (colorectal carcinoma), SW480 (colorectal adenocarcinoma), NCI-H460 (large cell lung carcinoma), NCI-H1650 (adenocarcinoma lung carcinoma), HCC827 (adenocarcinoma lung carcinoma), A549 (lung carcinoma), and CCD-19Lu (human lung fibroblast normal cell) were all obtained from American Type Culture Collection (ATCC, Manassas, VA, USA). Minimum Essential Media (MEM, Gibco®, ThermoFisher Scientific), Dulbecco's Modified Eagle Medium (DMEM, Gibco®, ThermoFisher Scientific), and RPMI-1640 Medium (Gibco®, ThermoFisher Scientific) supplemented with 10% Fetal Bovine Serum (Gibco®, ThermoFisher Scientific), and 100 U/mL penicillin-streptomycin (Gibco™, ThermoFisher Scientific) were used for cell culture. Cells were placed into an incubator with 5% CO2 that temperature was set at 37° C. For subculturing cells, 0.05% Trypsin-EDTA (Gibco®) was used for detaching and a subcultivation ratio of 1:5 was used.\n(§2) The cell viability assay was performed by a typical MTT assay. Briefly, 5*10^3 cells were seeded in the 96-well flat bottom plate and allowed to attach overnight. After drug treatment with a serial dilution from 100 μM for 48 h, 10 μL of MTT solution (5 mg/ml prepared in PBS, filtered) was added into each well and incubate for 4 h at 37° C. The formed formazan was then dissolved with SDS solution (10% SDS in 10 mM HCl) and followed the determination of absorbance at 590 nm by a microplate reader. The change in cell viability was then calculated for each drug concentration, then normalized to control. Dose response curves from each assay were fit to a Boltzmann sigmoidal function (GraphPad Prism8, version8.0.0). The cytotoxicity of AGB and its derivatives was determined by the calculation of IC50 value (half maximal inhibitory concentration) from fitted curves, which was the concentration of drug induced 50% cell viability."}, "AGS cell line": {"tested_on": "AGS cell line", "experiment": "MTT cell viability assay", "type": "cell-based, human", "settings": "Homo sapiens, AGS; MTT method, 48 h", "procedure": "as §1, §2"}, "H460 cell line": {"tested_on": "H460 cell line", "experiment": "MTT cell viability assay", "type": "cell-based, human", "settings": "Homo sapiens, NCI-H460", "procedure": "as §1, §2"}, "HeLa cell line": {"tested_on": "HeLa cell line", "experiment": "MTT cell viability assay", "type": "cell-based, human", "settings": "Homo sapiens, HeLa; MTT method, 48 h; read-out: IC50 HeLa cell line", "procedure": "as §1, §2"}, "[2]": {"tested_on": "ER stress in NCI-H460 cells", "experiment": "ER stress (ER tracker staining, Western Blot of markers)", "type": "cell-based, human", "excerpt": "The disruption of Golgi structure leads to impaired glycosylation processes, resulting in misfolded proteins which would accumulate to induce ER stress. The relationship between AGB and ER stress in cancer cells was examined. The morphology of ER was disrupted and the content was lessened using ER tracker staining (images not shown). In order to verify that NCI-H460 cells developed ER stress response when treated with AGB, the expression of two ER stress markers, Glucose-regulated protein (GRP) 78 (GRP78) and C/-EBP homologous protein (CHOP), was examined. GAPDH was used as a loading control. […] Generally, there are three sensors to initiate ER stress responses, including IRE1, PERK and ATF6. Upon the accumulation of unfolded proteins, BiP preferentially binds to the unfolded proteins, which results in the release of PERK, IRE1, and ATF6. Once released from BiP, PERK becomes activated and dimerized. Activated PERK phosphorylates eIF2α to suppress the overall […] of mRNAs."}}, "note": "Where two headings read alike, the source gives them in different places."}
{"smiles": "CCCC(=O)c1c(O)c(Cc2c(O)c(Cc3c(O)c(C)c(OC)c(C(=O)CCC)c3O)c(O)c(C(=O)[C@@H](C)CC)c2O)c(O)c(C)c1OC", "note": "[AGB, Agrimol B]", "values": [{"measurement": "observable toxicity (body weight of mice)", "setting": "[1]; 3 mg/kg of AGB", "value": "did not show any observable toxicity"}, {"measurement": "liver and kidney histology (H&E)", "setting": "[1]; after treatment with AGB", "value": "did not show any obvious change"}, {"measurement": "necrotic area in the tumor tissue vs vehicle group (H&E)", "setting": "[1]; mice treated with AGB", "value": "much larger"}, {"measurement": "IC50", "setting": "MDA-MB-231 cell line", "value": 2160, "unit": "nM"}, {"measurement": "IC50", "setting": "AGS cell line", "value": 2650, "unit": "nM"}, {"measurement": "IC50", "setting": "H460 cell line; MTT method, 48 h, read-out: IC50 H460 cell line", "value": 1850, "unit": "nM"}, {"measurement": "IC50", "setting": "H460 cell line; for 48 h, cell line not given, read-out: IC50 value of AGB", "value": 2300, "unit": "nM"}, {"measurement": "IC50", "setting": "HeLa cell line", "value": 810, "unit": "nM"}, {"measurement": "phosphorylation status of eIF2α", "setting": "[2]; AGB-treated NCI-H460", "value": "eIF2α was phosphorylated"}, {"measurement": "morphology of ER", "setting": "[2]; ER tracker staining", "value": "disrupted"}, {"measurement": "expression of ER stress markers GRP78 and CHOP", "setting": "[2]; Western Blot, time-dependent", "value": "significantly increased"}]}
